Measurements as given in a melting point compilation (Tetko et al.; mined from patent text by program, amines drawn as free bases though some values may be those of a salt).

Row | Compound | melting point
1 | CC(C)Cn1c(CN2CCCS2(=O)=O)nc2c(N)nc3c(c21)CCCC3 | 200 to 203 °C
2 | O=c1ccn2c(c1O)C(c1ccc(Br)cc1)OCC2 (configuration not stated) | 200 to 212 °C
3 | CC1(C)SC(C)(C)N(C(=O)COc2ccc(Cl)cc2)C1C(=O)O (configuration not stated) | 146 to 147 °C
4 | Oc1cc(-c2ccc(F)cc2)nc2ccsc12 | 316 to 318 °C
5 | OCCN1CCN(CC2CCn3c(nc4ccccc43)S2)CC1 (configuration not stated) | 68 to 70 °C
6 | Nc1cc(=O)n(Cc2ccc(F)cc2Cl)[nH]1 | 192 °C
7 | COc1ccc(-c2cc(NC(=O)C3(C)Cc4ccccc4C3)n[nH]2)cc1 | 171 to 172 °C
8 | CCCCCCCCCCCCC(=O)/C=C/C(=O)O | 97.5 to 98.5 °C
9 | OC(CCn1ccnc1)c1ccc2c(c1)Cc1ccccc1-2 (configuration not stated) | 144 to 146 °C
10 | S=C=Nc1ccc(Cl)c(Cl)c1 | 111 to 113 °C
11 | O=CNc1ccsc1I | 100 to 107 °C
12 | CC(C)(CN)c1ccc2nc(-c3ccc(O)cc3)[nH]c2c1 | 178 to 182 °C
13 | CC(C)(C)c1cc(-c2cncn2CCCO)cc(C(C)(C)C)c1O | 166 to 167 °C
14 | CC(C)c1cccc(C(C)C)c1NC(=O)CCl | 146 to 148 °C
15 | COc1ccc(CN(C)CCCSc2ccc(NC(=O)c3cccc4c(=O)c5cccc(C)c5[nH]c34)cc2)cc1OC | 158 °C
16 | CNC(=O)CCNC(=O)NOCCCl | 125 to 126 °C
17 | CC(=O)OC1(C(N)=O)CCCc2cc(C)cnc21 (configuration not stated) | 205 °C
18 | CCOC(=O)Nc1c(F)cc(Cl)c2c1OC(C)(C)C2 | 114 to 115 °C
19 | CC(=O)N(C)c1c(I)c(NC(=O)CS(=O)(=O)CC(=O)O)c(I)c(C(=O)O)c1I | > 300 °C
20 | CCOC(=O)Cc1nc(-c2ccccc2)oc1-c1cccs1 | 82 to 83 °C
21 | COc1nc(NC(=O)NS(=O)(=O)c2ccccc2Cl)nc2nccnc12 | 212 °C
22 | COc1ccc(N2CCN(c3c(C)c(C)c4c(c3C)C(N3CCN(C)CC3)C(C)(C)O4)CC2)cc1 (configuration not stated) | 94 to 96 °C
23 | Cc1c(Br)c(C)c2c(C)coc2c1Cc1ccc(C(C)C)cc1 | 76 to 77 °C
24 | C=CCOc1ccc(C#N)c(OC(C(=O)OC)c2ccccc2C)c1 (racemic) | 98 to 99 °C
25 | CCOC(=O)c1cn(C2COC2)c2cc(F)c(F)c(OCc3ccccc3)c2c1=O | 220 to 222 °C
26 | Nc1cc(Cl)cc(Cl)c1C(=O)NCC1CCCCC1 | 168 to 171 °C

Row | Compound | melting point
27 | CCOC(C)=C(C#N)C(=O)Nc1ccccc1C | 179 to 181 °C
28 | FC(F)(F)c1ccc(-c2cc(C(F)(F)F)c3ncc(I)n3n2)cc1 | 123 to 125 °C
29 | COc1ccc(-c2c(N)oc3c(C(C)(C)C)cc(C(C)(C)C)cc23)cc1OC | 172 to 174 °C
30 | CCCCC(=O)N(Cc1ccc(OC(F)(F)F)c(Cl)c1)c1cc(F)cc(-c2nnn[nH]2)c1 | 137 °C
31 | Cc1cc(-c2ccc(Cl)cc2)nc(-n2cnc(-c3ncc(S(N)(=O)=O)s3)c2)n1 | 256 °C
32 | CCSc1nc2c(cc1F)c(=O)c(C(=O)O)cn2C(C)(C)C | 215 °C
33 | CCCc1nc2c(N)nc3ccccc3c2n1CC1(O)CCCCC1 | 250 to 252 °C
34 | COc1ccc(-c2nc(-c3ccccn3)cs2)cc1 | 100 to 103 °C
35 | CC(C)c1ccc(C(=O)C2=C(O)C(=O)N(c3ccc(OCc4ccccc4)nn3)C2c2ccc(OC(F)(F)F)cc2)cc1 (configuration not stated) | 269 °C
36 | CN(c1cccc2cc(-c3ncc(CCc4nn[nH]n4)s3)[nH]c12)S(=O)(=O)c1cccs1 | 211 to 212 °C
37 | COC(=O)CCCCCSC1=CCCC1=O | 45 to 46.5 °C
38 | O=C(CN1CCN(C(CO)C(=O)O)CCN(C(CO)C(=O)O)CCN(C(CO)C(=O)O)CC1)NCCOCCO (configuration not stated) | 145 to 150 °C
39 | CCCCc1cccc2[nH]c(C(=O)OCC)cc(=O)c12 | 132 to 133 °C
40 | COc1cc2c(cc1OC)C(C)=[N+]([O-])CN2 | 161 to 163 °C
41 | N#Cc1cccc2c3c([nH]c12)CCNC3 | 230 to 235 °C
42 | CC(Cc1ccc(OCc2ccccc2)cc1)NCC(O)c1cccc(Cl)c1 (configuration not stated) | 95 to 99 °C
43 | Cc1nc[nH]c1CSCCNC(=N)NCC(C)SCc1[nH]cnc1C (configuration not stated) | 173 to 175 °C
44 | S=C(NC1CC1)N1CCc2[nH]cnc2C1 | 185 °C
45 | Cc1cc(Br)ccc1-n1c(CF)nc2ccc([N+](=O)[O-])cc2c1=O | 208 to 210 °C
46 | O=C(O)Cc1ccccc1OCCC(c1ccccc1)(c1ccccc1)c1ccccc1 | 79 to 80 °C
47 | CC(C)c1csc(CO)n1 | 80 to 82 °C
48 | Cc1[nH]c(C=O)c(C)c1-c1nc2ccc(C(=O)c3ccccc3)cc2[nH]1 | 253 to 255 °C
49 | Cc1cc(C2=C(Cl)CCN(C(=O)c3ccccc3)C2)no1 | 86 to 87 °C
50 | O=C(O)CCc1cc2cc(F)c(Cl)cc2n1S(=O)(=O)c1ccccc1 | 199 to 204 °C
51 | COc1cc(C=O)cc(OC)c1NC=O | 159 to 160 °C
52 | O=C1CC(c2sccc2Cl)=Nc2ccc(-c3ccc(F)cc3)cc2N1 | 255 to 256 °C

Row | Compound | melting point
53 | COc1nccnc1OCC(O)CN1CCC(N2CCN(c3ccccc3)C2=O)CC1 (configuration not stated) | 128 to 129 °C
54 | Cc1csc(C2CCN(CCCC(O)c3ccc(F)cc3)CC2)n1 (configuration not stated) | 98 to 99 °C
55 | COc1cc(C(C#Cc2c(C)nc(N)nc2N)OC)cc(OC)c1OC (configuration not stated) | 127 to 129 °C
56 | CCOC(=O)Cc1c(C)[nH]c2ccc(F)cc12 | 61 to 62 °C
57 | Cc1c(Cc2ccccc2)c(=O)oc2cc(OC(C)c3nnn[nH]3)cc(OC(C)c3nnn[nH]3)c12 (configuration not stated) | 91 to 104 °C
58 | O=[N+]([O-])N=C1NCCN1Cc1ccc(F)nc1 | 121 to 124 °C
59 | CCCCCCCCCCCC(=O)N[C@@H](C)C(=O)N[C@H](CCC(=O)OCc1ccccc1)C(N)=O | 169 °C
60 | CC(Oc1ccc(CNC(=O)c2cccnc2Oc2ccc3c(c2)OCO3)c(F)c1)C(=O)O (configuration not stated) | 136 to 138 °C
61 | CCOC(=O)C1=C(C)NC(=S)N(C(=O)OCC)C1c1ccccc1C (configuration not stated) | 112 to 114 °C
62 | Cc1ccnc(N2CCN(CCC3Cn4c(-c5ccc(O)cc5)c(C)c5cccc(c54)O3)CC2)c1 (configuration not stated) | 213 to 214 °C
63 | O=CN(O)C(CCO)CS(=O)(=O)c1ccccc1Oc1ccc(OC(F)(F)F)cc1 (configuration not stated) | 120 to 123 °C
64 | c1ccc(-c2ccc(-c3cccs3)s2)cc1 | 116 to 118 °C
65 | Clc1ccc([C@@]2(Cn3ccnc3)OC[C@H](COc3ccc4c(c3)CCNC4)O2)c(Cl)c1 (racemic) | 143 to 145 °C
66 | CC1C(=O)N(Nc2ccccc2)C1C#C[Si](C)(C)C (configuration not stated) | 136 °C
67 | Cc1cccc(-c2nc3cccnn3c2-c2ccnc(N)c2)c1 | 188 to 189 °C
68 | Fc1ccc2c(c1)Cc1cc(F)ccc1O2 | 117 to 118 °C
69 | CCOC(=O)C(=O)Nc1ccc(Cl)c(C(F)(F)F)c1 | 128 to 130 °C
70 | CCCCNc1c(C(=O)OCC)c(C)nc(NCC)c1[N+](=O)[O-] | 53 to 55 °C
71 | O=C1CCCC2=C1C(c1cccc(C(F)(F)F)c1)C1=C(CCCC1)N2 (configuration not stated) | 250 to 251 °C
72 | CCC1(COc2ccc(C(=O)O)cc2)COC1 | 128 °C
73 | COc1cc(Br)cc(/C=C/C(=O)/C=C/c2cc(Br)cc(OC)c2)c1 | 181 to 183 °C
74 | C[Si](C)(C)C#Cc1ccnc(Cl)n1 | 51 to 54 °C
75 | O=c1[nH]c(=Cc2ccc(OCc3ccccc3)cn2)c(=O)[nH]c1=Cc1ccc(Cl)c(Cl)c1 | 264 to 265 °C
76 | CCCCNC(=S)Nc1nc2ccc(OC(F)(F)F)cc2s1 | 211 °C
77 | OCc1ccc2c(c1)C=C(n1ccnc1)CC2 | 88 to 91 °C
78 | CCOC(=O)CCCOc1ccc(C(N)=O)cc1 | 144 to 146 °C

Row | Compound | melting point
79 | Cc1nc(Cl)c2c(n1)c(C)nn2C | 91 to 93 °C
80 | NNc1ccnc2c(NC(=O)c3c(Cl)cccc3Cl)cc(Cl)cc12 | 142 to 150 °C
81 | CCCCN(C(=O)Nc1ccc(F)cc1F)c1cnc2ccc(Cl)cc2c1-c1ccccc1Cl | 63 to 66 °C
82 | CS(=O)(=O)OCCOc1ccccc1OCC1CC1 | 90 to 91 °C
83 | CC1CCN=C2N1c1ccc(Br)cc1C21OCCCO1 (configuration not stated) | 69 to 72 °C
84 | CCCCCCCCCCCCCCCCCC(O)c1cc(C(=O)OCC)ccc1O (configuration not stated) | 75 °C
85 | CC(NC(=O)OC(C#N)c1cccc(Oc2ccccc2)c1)c1cccc2ccccc12 (configuration not stated) | 122 °C
86 | Cc1c(C)c(N2CCN(c3nncs3)CC2)c(C)c2c1OC(C)C2 (configuration not stated) | 203 to 205 °C
87 | O=C(O)c1ccc(C=C2CCN(C(=O)c3ccc(Cl)cc3)CC2)c(F)c1 | 170 to 173 °C
88 | COc1cc(-c2csc(C3CC3)n2)cc2oc(=O)c(C)c(C)c12 | 151 °C
89 | NC(=O)c1nc(-c2ccncc2)nc2c1NC(=O)CN2c1ccccc1 | 298 to 304 °C
90 | CC(C)(C)OC(=O)NC(Cc1ccccc1F)C(=O)N1CCSC1 (configuration not stated) | 133 to 134 °C
91 | Nc1c(-c2cc(Cl)ccc2O)c2cc(C(F)(F)F)ccc2[nH]c1=O | 233 to 235 °C
92 | O=C/C=C/C1=C(c2ccc(F)cc2)C=C(c2ccc(F)cc2)CC12CCCC2 | 120 to 124 °C
93 | CC(C)(C)C(NC(=O)c1cccc(Cl)c1)Nc1c(Nc2ccc(C(F)(F)F)nc2)c(=O)c1=O (configuration not stated) | 226 to 227 °C
94 | Cc1cc(OCc2ccc(-c3ccc(C(F)(F)F)c(F)c3)nc2C)ccc1OC(C)(C)C(=O)O | 175 to 176 °C
95 | Cc1c2n(c3ccccc13)C(=O)C(Cc1cncn1C)CC2 (configuration not stated) | 117 to 118 °C
96 | CC(=O)OCC1OC(n2cnc3c(-n4cnc(-c5ccccc5)c4-c4ccccc4)nc(Cl)nc32)C(OC(C)=O)C1OC(C)=O (configuration not stated) | 146 °C
97 | OCCC1CC(n2nnc3c(NC4CC4c4ccccc4)nc(Sc4ccc(C(F)(F)F)cc4)nc32)C(O)C1O (configuration not stated) | 100 to 102 °C
98 | CN(C(=S)Nc1nc(OCC(F)(F)F)cc(OCC(F)(F)F)n1)c1ccc(C(F)(F)F)cc1 | 109 to 111 °C
99 | O=C(c1ccc(Cl)cc1)c1ccc2c(c1)Cc1ccccc1-2 | 183 °C
100 | CC(C)n1nc(-c2nc(C(N)=S)c(N)nc2-c2ccccc2)ccc1=O | > 250 °C
101 | C=CC(=O)N1C(C)(C)CC(OC(=O)CCCC(C)(C)c2cc(OC)c(C(C)(C)CCCC(=O)OC3CC(C)(C)N(C(=O)C=C)C(C)(C)C3)cc2O)CC1(C)C | 50 to 52 °C
102 | CCOc1cccc(-c2ccnc3c(C(=O)c4cccs4)cnn23)c1 | 146 to 148 °C
